This is an account of results in patent US20180116993A1, “MODULATORS OF FARNESOID X RECEPTOR AND METHODS FOR THE USE THEREOF” (XIAMEN UNIVERSITY, priority 2015, published 2018).

Each structure is given as a SMILES string. Where two headings read alike, the source gives them in different places. Marks after values point to notes of the source that are not given here.

The target in assay [1] is T1, FXR ligand binding domain (LBD) (Homo sapiens, UniProt Q96RI1).
T1 construct: made in house
T1 sequence (Q96RI1 262-486 limits assumed): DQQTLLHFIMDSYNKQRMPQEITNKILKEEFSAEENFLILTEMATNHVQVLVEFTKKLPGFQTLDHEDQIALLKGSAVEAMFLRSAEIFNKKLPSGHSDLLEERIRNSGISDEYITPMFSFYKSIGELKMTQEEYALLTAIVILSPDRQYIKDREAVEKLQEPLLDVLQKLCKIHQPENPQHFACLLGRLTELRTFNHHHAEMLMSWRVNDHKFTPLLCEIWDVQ
Kind of assay: AlphaScreen assay: FXR LBD recruitment of coregulator peptide motifs (SRC2-3, SRC1-2). The format is biochemical. As to conditions: Table 2. For orientation: Bead proximity is the source of the signal in Alpha formats.

The next assay concerns the target T2, full-length FXR (Homo sapiens, UniProt Q96RI1).
T2 construct: The cells were co-transfected with plasmids encoding full-length FXR and the cognate luciferase reporter EcRE-Luc; expressed in transfected cells; host or cells: COS-7
T2 sequence (Q96RI1 1-486): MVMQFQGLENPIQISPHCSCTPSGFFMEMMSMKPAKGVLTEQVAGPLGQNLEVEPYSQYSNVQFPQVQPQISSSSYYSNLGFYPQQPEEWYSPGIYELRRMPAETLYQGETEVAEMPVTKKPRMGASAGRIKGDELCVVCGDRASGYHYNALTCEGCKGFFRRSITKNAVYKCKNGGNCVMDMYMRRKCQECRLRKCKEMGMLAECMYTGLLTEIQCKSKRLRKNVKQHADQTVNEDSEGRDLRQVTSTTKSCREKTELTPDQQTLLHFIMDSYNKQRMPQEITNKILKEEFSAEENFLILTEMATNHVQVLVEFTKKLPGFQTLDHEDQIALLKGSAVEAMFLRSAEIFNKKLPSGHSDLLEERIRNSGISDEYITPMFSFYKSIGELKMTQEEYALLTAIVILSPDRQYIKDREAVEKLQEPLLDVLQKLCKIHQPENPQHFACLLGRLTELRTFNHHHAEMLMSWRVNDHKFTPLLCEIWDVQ
Description: Cell-based FXR transactivation, EcRE luciferase reporter in COS-7 cells. As to conditions: Table 2; for Cell-based FXR transactivation Fold changes by 5 μM compound: positive: induction, minus: repression; for EC50: EcRE luciferase reporter. Summed up: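 COS-7 cells were transiently cotransfected with full-length FXR, EcRE-Luc reporter and a renilla control. Ligands were added 5 h after transfection, and cells were harvested 24 h later. Firefly luciferase was normalized to renilla in a dual-luciferase read-out.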
A general note: A reporter such as luciferase makes a cellular process visible.

Assay [2] deals with human hepatoma HepG2 cells. Kind of assay: MTT cell viability assay, HepG2. As to conditions: 48 h, read-out: Cell viability as a percentage of the cells treated with DMSO, HepG2. Format: cell-based. The method, boiled down: (§1)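 Viability, reported relative to DMSO-treated cells (%), comes from an MTT colorimetric assay after exposure to 20 uM or 40 uM compound. Cells are maintained in DMEM containing 10% fetal bovine serum.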
(Tetrazolium assays rely on reduction of a dye to a coloured formazan, in cell work by metabolically active cells.)

Assay [3] relates to RA-resistant human colon cancer HCT116 cells. Kind of assay: MTT cell viability assay, HCT116. The format is cell-based. As to conditions: 48 h, read-out: Cell viability as a percentage of the cells treated with DMSO, HCT116; for viability at 20 µM: HCT-116, 20 uM; for viability at 40 µM: HCT-116, 40 uM. The method, boiled down: as §1
Assay [4] relates to human colorectal adenocarcinoma HCT15 cells. Description: MTT cell viability assay, HCT15. The format is cell-based. As to conditions: 48 h, read-out: Cell viability as a percentage of the cells treated with DMSO, HCT15; for viability at 20 µM: HCT-15, 20 uM; for viability at 40 µM: HCT-15, 40 uM. The method, boiled down: as §1
In the next assay the test system is db/db mice. Description: Hepatic triglyceride, liver histology, serum ALT and ALP in high-fat diet fed db/db mice. The format is in vivo, mouse. As to conditions: for Hepatic triglyceride (mM/g): vehicle 148 ± 14; for Serum ALP (U/L): vehicle 129 ± 15. The method, boiled down:
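High-fat diet fed db/db mice aged 8-10 weeks dosed 10 mg/kg compound once daily for 10 days. Liver sections stained with H&E and 0.3% oil red O; hepatic triglyceride measured by tissue assay kit; serum ALP and ALT activities measured by kit.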

Assay [5] deals with human cervical carcinoma Hela cells. Description: MTT cell viability assay, Hela. The format is cell-based. As to conditions: 48 h, read-out: Cell viability as a percentage of the cells treated with DMSO, Hela. Summed up:
as §1

Assay [6] deals with human breast cancer MCF7 cells. Description: MTT cell viability assay, MCF-7. The format is cell-based. As to conditions: 48 h, read-out: Cell viability as a percentage of the cells treated with DMSO, MCF-7. Summed up: as §1
The mark [7] stands for this setting: SRC1-2 peptide, read-out: EC50 (μM) of FXR binding by AlphaScreen assay recruit SRC1-2.
[8] abbreviates: SRC2-3 peptide, read-out: EC50 (μM) of FXR binding by AlphaScreen assay recruit SRC2-3.
Setting [9] is: 10 mg/kg for 10 days, vehicle 377 ± 48, Table 15.
Where [10] appears, read: 10 mg/kg once daily for 10 days.
[11] abbreviates: 10 mg/kg once daily for 10 days, vehicle 377 ± 48, Table 17.

For the compound `CC1(C)C2CCC1(C)C(OC(=O)C1CCC(O)CC1)C2` (stereo not shown) [XD-20, 1,7,7-trimethyl-bicyclo[2.2.1]-heptan-2-yl 4-hydroxy-cyclohexane-carboxylate], the values for the half-maximal effective concentration (EC50) (in assay [1] (setting [7]); in assay [1] (setting [8]); at full-length FXR) were 1 to 10 µM, 1 to 10 µM and 1000 to 10000 nM, respectively. Also, the “Cell-based FXR transactivation Fold changes by 5 μM compound” value on full-length FXR is reported as 6. The viability at 20 µM in assay [2] was 100 ± 5%; in assay [3], 79 ± 2%; in assay [4] it was 100 ± 4%; in assay [5] it was 100 ± 5%; in assay [6] it was 85%. For the same compound, the viability at 40 µM came to 100 ± 2% in assay [2]; 70 ± 7% in assay [3]; 84 ± 4% in assay [4]; 96 ± 1% in assay [5]; 82 ± 1% in assay [6]. Besides, in the assay on db/db mice (10 mg/kg for 10 days), the “Hepatic triglyceride (mM/g)” value is recorded as 60 ± 15^b mM/g. For the same compound, the “Serum ALT (U/L)” value was 115 ± 29 ^a U/L in the assay with db/db mice (setting [9]) and 115 ± 29^a U/L in the assay with db/db mice (setting [11]). Also, in the assay on db/db mice (setting [10]), the “Serum ALP (U/L)” value is recorded as 73 ± 19^a U/L.
`Cc1cc(C(=O)OC2CCCCCCC2)ccc1O` [XD-17, cyclooctyl 4-hydroxy-3-methylbenzoate]: the 50% effective concentration (EC50) in assay [1] (setting [7]) was below 1 µM; in assay [1] (setting [8]), below 1 µM; at full-length FXR it was below 1000 nM. Also, the “Cell-based FXR transactivation Fold changes by 5 μM compound” value at full-length FXR came to 3. Further, the viability at 20 µM in assay [2] is 87%; in assay [3], 82 ± 2%; in assay [4], 52 ± 2%; in assay [5], 83 ± 4%; in assay [6], 91 ± 9%. Besides, the viability at 40 µM in assay [2] was determined as 40 ± 1%; in assay [3] it was 27 ± 3%; in assay [4], 24 ± 3%; in assay [5] it was 39 ± 1%; in assay [6] it was 25%. In addition, the “Serum ALP (U/L)” value in the assay with db/db mice (setting [10]) is 76 ± 17^a U/L. Further, the “Serum ALT (U/L)” value with db/db mice (setting [11]) is reported as 185 ± 51^a U/L.
With `CC1(C)C2CCC1(C)C(OC(=O)c1ccc(F)c(Br)c1)C2` (stereo not shown) [XD-13, 1,7,7-trimethyl-bicyclo[2.2.1]-heptan-2-yl 3-bromo-4-fluoro-benzoate], the concentration for a half-maximal effect (EC50) in assay [1] (setting [7]) was below 1 µM; in assay [1] (setting [8]) it was below 1 µM; on full-length FXR, below 1000 nM. Also, at full-length FXR, the “Cell-based FXR transactivation Fold changes by 5 μM compound” value is reported as 4. Also, the viability at 20 µM is 92 ± 3% in assay [2]; 100 ± 2% in assay [3]; 100 ± 2% in assay [4]; 100 ± 3% in assay [5]; 100 ± 7% in assay [6]. Further, the viability at 40 µM in assay [2] amounted to 86 ± 1%; in assay [3] it was 70 ± 5%; in assay [4], 71 ± 3%; in assay [5], 96 ± 1%; in assay [6], 100 ± 1%. In addition, the “Serum ALP (U/L)” value in the assay on db/db mice (setting [10]) is listed as 92 ± 7^c U/L. The “Serum ALT (U/L)” value with db/db mice (setting [11]) is reported as 135 ± 5^c U/L.
In the case of `CC1(C)C2CCC1(C)C(OC(=O)c1ccc(F)cc1)C2` (stereo not shown) [XD-0, 1,7,7-trimethyl-bicyclo[2.2.1]-heptan-2-yl 4-fluorobenzoate], the EC50 in assay [1] (setting [7]) was in the range of 1 to 10 µM; in assay [1] (setting [8]) it was 1 to 10 µM; on full-length FXR, 1000 to 10000 nM. Also, on full-length FXR, the “Cell-based FXR transactivation Fold changes by 5 μM compound” value is recorded as 5. In addition, the viability at 20 µM was determined as 81 ± 2% in assay [2]; 95 ± 4% in assay [3]; 81 ± 4% in assay [4]; 90% in assay [5]; 100 ± 2% in assay [6]. The viability at 40 µM in assay [2] stood at 76 ± 7%; in assay [3], 62 ± 6%; in assay [4], 56 ± 2%; in assay [5] it was 71 ± 3%; in assay [6], 85%. For the same compound, the “Hepatic triglyceride (mM/g)” value in the assay on db/db mice (10 mg/kg for 10 days) was 91 ± 22 ^a mM/g. Further, the “Serum ALT (U/L)” value with db/db mice (setting [9]) is given as 106 ± 22 ^a U/L.
Regarding `Cc1cc(C(=O)OC2CCC3CCCCC3C2)ccc1O` (stereo not shown) [XD-29, decahydro-naphthalen-2-yl 4-hydroxy-3-methylbenzoate], the concentration giving a half-maximal response (EC50) is below 0.5 µM in assay [1] (setting [7]), below 0.5 µM in assay [1] (setting [8]) and below 1000 nM at full-length FXR. Besides, on full-length FXR, the “Cell-based FXR transactivation Fold changes by 5 μM compound” value worked out at 3. In addition, the viability at 20 µM in assay [2] was found to be 100 ± 2%; in assay [3], 100 ± 2%; in assay [4], 72 ± 2%; in assay [5], 96 ± 2%; in assay [6], 100 ± 2%. For the same compound, the viability at 40 µM worked out at 98 ± 2% in assay [2]; 96 ± 2% in assay [3]; 52 ± 2% in assay [4]; 90 ± 2% in assay [5]; 88% in assay [6]. Also, the “Hepatic triglyceride (mM/g)” value with db/db mice (10 mg/kg for 10 days) is 116 ± 11 ^a mM/g. Also, the “Serum ALT (U/L)” value in the assay with db/db mice (setting [9]) and in the assay with db/db mice (setting [11]) was 101 ± 46^b U/L in each case. In addition, the “Serum ALP (U/L)” value in the assay on db/db mice (setting [10]) is reported as 69 ± 9^c U/L.
For the compound `Nc1ccc(C(=O)OC2CCCCCC2)cc1` [XD-12, cycloheptyl 4-aminobenzoate], the EC50 in assay [1] (setting [7]) and in assay [1] (setting [8]) was above 10 µM in each case. The “Cell-based FXR transactivation Fold changes by 5 μM compound” value on full-length FXR worked out at 1.5. Besides, the viability at 20 µM was determined as 100 ± 2% in assay [2]; 77 ± 3% in assay [3]; 65 ± 4% in assay [4]; 100 ± 2% in assay [5]; 100 ± 4% in assay [6]. Further, the viability at 40 µM in assay [2] worked out at 97 ± 3%; in assay [3], 65 ± 3%; in assay [4], 54 ± 4%; in assay [5], 90 ± 5%; in assay [6], 82%. In addition, the “Hepatic triglyceride (mM/g)” value in the assay on db/db mice (10 mg/kg for 10 days) was 103 ± 20 ^a mM/g. In the assay with db/db mice (setting [9]), the “Serum ALT (U/L)” value was 199 ± 37 ^a U/L.
Consider `COc1cc(C(=O)OC2CCCCCCC2)ccc1O` [XD-18, cyclooctyl 4-hydroxy-3-methoxybenzoate], for which the EC50 was below 1 µM in assay [1] (setting [7]), below 1 µM in assay [1] (setting [8]) and below 1000 nM on full-length FXR. Also, the “Cell-based FXR transactivation Fold changes by 5 μM compound” value on full-length FXR turned out to be 3. Besides, the viability at 20 µM in assay [2] stood at 96 ± 3%; in assay [3] it was 92 ± 1%; in assay [4], 91 ± 4%; in assay [5] it was 100 ± 3%; in assay [6] it was 98 ± 10%. Further, the viability at 40 µM amounted to 55 ± 1% in assay [2]; 30 ± 2% in assay [3]; 40 ± 4% in assay [4]; 71 ± 3% in assay [5]; 32% in assay [6]. For the same compound, the “Serum ALP (U/L)” value with db/db mice (setting [10]) was 77 ± 9^c U/L. Also, the “Serum ALT (U/L)” value in the assay with db/db mice (setting [11]) is 129 ± 19^b U/L.

The EC50 is the concentration at which the effect is half-maximal. In general, viability refers to a read-out of living cells in per cent, often relative to untreated cells.
